This note sets out measurements from patent US20030187261A1, “Purine derivatives, process for their preparation and use thereof” (priority 2000, published 2003).

Test [1] concerns adult bone marrow CD34+CD38- cells. Briefly: pre-CFU assay. The format is cell-based, human. Conditions: 14 day liquid culture, total clonogenic output after secondary methylcellulose culture. An excerpt:
[…]. Cells with low-to-medium forward and low side scatter, highly positive green (CD34) fluorescence, and an orange (CD38) fluorescence signal lower than the mean fluorescence of cells labeled with an irrelevant isotype-matched control antibody+2 standard deviations were retained as CD34^+CD38^− cells and used in pre-CFU assays.
Pre-CFU assays were initiated by performing liquid cultures of CD34^+CD38^− cells in duplicate in 96-well flat-bottomed plates in IMDM/10% FCS, 1% bovine serum albumin (BSA), 100 U/ml IL-1, 200 U/ml IL-6, 30 U/ml IL-3 and 100 ng/ml stem cell factor (SCF). Pre-CFU cultures were initiated with 500 CD34^+CD38^− cells/well (200 μl). After 14 days of culture at 37° C. in 7.5% O2 and 5% CO2 in a fully humidified incubator, the number of cells in each well was counted. Subsequently, the cells were harvested, washed three times in IMDM/10% FCS, and plated in duplicate at 500 cells/well (1000 μl) in secondary methylcellulose CFU cultures as described for CFU assays.
Pre-CFU were cultured starting from adult bone marrow CD34^+CD38^− cells, that had been isolated using the FCM cell sorter. Novel compounds were added at different concentrations to the primary 14 day liquid culture. IC50 was calculated from dose-response curves from total clonogenic output after secondary methylcellulose culture (Table 5).

Another test concerns β-adrenergic receptors. Description: isoproterenol-induced intracellular cAMP synthesis in rat C6 glioma. The test is classed as cell-based. Conditions: cAMP induced by 5 μM (−) isoproterenol. The protocol:
Rat C6 glioma (ATCC N° CCL107) was cultivated in monolayer in serum-free chemically defined medium containing Ham's F10/minimal essential medium (1:1 vol/vol), 2 mM L-glutamine, 1% (vol/vol) minimal essential medium vitamins (100×), 1% (vol/vol) minimal essential medium nonessential amino acids (100×), 100 U/ml penicillin, 100 μg/ml streptomycin and 30 nM sodium selenite. Incubation was at 37° C. in a humidified atmosphere. Assays were performed in the logaritmic growth phase at a density of 2.5×10^5 cells/cm^2. Intracellular cAMP synthesis was induced by addition of 5 μM (−) isoproterenol. After 30 min incubation at 37° C. the medium was removed and the cellular amount of cAMP determined using the cAMP-enzyme immunoassay kit of Amersham. The IC50 is determined from a dose-response curve in duplicate. The effect of seven purine-analogs was measured after simultaneous addition with isoproterenol.
As P2Y1-like and A2 purinergic receptors, negatively and positively coupled to adenylate cyclase respectively, are present on rat C6 glioma the modulation of the synthesis of cAMP may be due to inhibition of the activation of β-adrenergic receptors by isoproterenol or to activation of purinergic receptors.

The subject of test [2] is PHA-stimulated lymphocytes (PBMC). Briefly: cell number of PHA-stimulated lymphocytes (PBMC), flow cytometry. The format is cell-based, human. Conditions: 96 hours, in the presence of IL-2. The protocol: Human peripheral blood mononuclear cells were isolated by density gradient (Ficoll-Hypaque) (LSM, ICN Biomedicals Inc.). PBMC were stimulated with 5 μg/ml phytohemaglutinin A (PHA) (Sigma) during 24-48 hours in IMDM supplemented with 10% FCS (IMDM/10% FCS) at 37° C. After washing off the PHA, PBMC were incubated with interleukin-2 (IL-2) (10 U/ml) (Genzyme).
Cells were plated at 10000 per well in 200 μl IMDM medium and incubated with 0-50 μM of the compounds of the invention (Table 5), by addition of the drugs directly to the culture medium and incubated at 37° C. for 96 hours. Absolute cell number was determined by addition of a known concentration of Fluoresbrite microspheres (FITC) (Polysciences, Inc.). The absolute number of cells per well was calculated as: {(total number of beads added per well)/(number of beads measured)}×(number of measured cells in the gate of interest). All analyses were performed with a FACScan (BD), using CELLQuest software (Becton Dickinson).
The novel compounds were tested for cytotoxicity on PHA-stimulated lymphocytes (PBMC), as one of the normal counterparts of the cell lines. Cells were grown for 96 hours in the presence of IL-2 and different concentrations of the novel compounds and cell number was counted on the flow cytometer.

The subject of test [3] is myeloid leukemia KG1 cell line. Description: cell growth of KG1 cell line, flow cytometric cell count. The conditions noted are these: for IC50: read-out: KGI IC50.
Description: Cell lines: Human leukemic cell lines were obtained from the American Type Culture Collection (ATCC, Rockville, Md., USA).
The response of the myeloid leukemia KG1 and T-lymphocyte leukemia Molt3 cell lines to the cytostatic effect of the novel compounds was determined using the above-mentioned standardized bead suspension that was used to determine the absolute cell number by flow cytometric (FCM) measurement. Cells were grown in the presence of increasing concentrations of the compounds of the invention.
To determine reversibility of the effects of the new compounds, cells were plated at 10,000 per well and exposed to 0-50 μM of the composed, either continuously for 7 days (control) or only for 6 hours. In the latter case, cells were washed after 6 hours in phosphate-buffered-saline (PBS) (Life Technologies) and reseeded into drug-free medium for 7 days.
Test [4] has as its system CD34+ hematopoietic progenitors (HPC) from adult bone marrow. Briefly: myeloid colony-forming unit (CFU) assay. The format is cell-based, human. Conditions: for IC50: 14 days, methylcellulose, total colony output; for output of the different types of myeloid colonies (CFU-E, CFU-G and CFU-M): scored differentially.

Entries after “also recorded” stand apart in the source; their conditions may differ. Like-named read-outs stand apart in the source and are kept apart here.

For `CCCCCCNc1nc(NC(CO)c2ccccc2)c2ncn(C(C)C)c2n1` (stereo not drawn) [P23, 2-(hexylamino)-6-(1-phenyl-2-hydroxyethylamino)-9-isopropylpurine], the IC50 was more than 25 µM in test [1] (Homo sapiens, 336 h); 15 ± 2 µM in the test with β-adrenergic receptors (30 min, read-out: I50); 8 ± 0.6 µM in test [3] (Homo sapiens, KG-1, 96 h); more than 50 µM in test [4] (Homo sapiens, 336 h). In addition, the Effect entry with β-adrenergic receptors (30 min, rat C6 glioma) was “inhibition”. For the same molecule, the CC50 in test [2] (Homo sapiens, Lymphocyte, read-out: Lymphocytes IC50) was 15 ± 2 µM. In test [3] (FIG. 2), the “effectiveness on KG1 compared with normal PBMC” value is “significantly more effective on KG1 than on normal PBMC; also recorded: significantly more effective on KG1 than on normal-PBMC”. Further, the “output of the different types of myeloid colonies (CFU-E, CFU-G and CFU-M)” value in test [4] is “significantly lower colony output”.
For “2-(3-aminoethylamino)-6-(3,3-dihydroxybenzyl)amino-9-isopropylpurine [P28]”, the IC50 in test [1] stood at 3.5 µM; in test [2], 9 ± 2.2 µM; in test [3] (96 hours of culture), 16 ± 1.3 µM; in test [4], 8.5 µM. In addition, the “Effect: fold activation” value in the test on β-adrenergic receptors (50 μM) is given as 1.3-fold activation. Also, the “cell number after 6 hours of exposure, wash and 7 days in drug-free medium” value in test [3] (KG1, compared to control without novel compounds) is “(some) recovery of cell number”. In test [4], the “output of the different types of myeloid colonies (CFU-E, CFU-G and CFU-M)” value is reported as “significantly lower colony output”.
